Reference: patent publication US4330557A, “Acyl-carnitine and use thereof in parenteral administration of triglycerides” (priority 1980, dated 1982)

Experiment: general statement on activity and toxicity of carnitine stereoisomers and acyl-carnitine

Compound | toxicity of carnitine isomer (D-isomer versus other isomer) | activity of carnitine isomer (L-isomer versus other isomer)
C[N+](C)(C)C[C@@H](O)CC(=O)[O-] [D-carnitine] | slightly more toxic | –
C[N+](C)(C)C[C@H](O)CC(=O)[O-] [L-carnitine] | – | more active
